Reference: ChEMBL document CHEMBL3751808, “Gambogic acid induces apoptotic cell death in T98G glioma cells” (Bioorg Med Chem Lett, 2016)
Active and inactive are the calls of the source. No cut-off for these calls is given here.

Key:
[1] = system: T98G; test: Antiproliferative activity against human T98G cells after 24 hrs by EZ-Tox assay; type: functional, cell-based
[2] = system: T98G; test: Antiproliferative activity against human T98G cells assessed as cell viability after 72 hrs by MTT assay; type: functional, cell-based
[3] = system: T98G; test: Induction of apoptosis in human T98G cells assessed as increase of ROS level at 200 to 400 nM after 10 hrs using DCFH-DA staining by fluorescence microscopic analysis; type: functional, cell-based
[4] = system: T98G; test: Induction of apoptosis in human T98G cells assessed as early-stage apoptotic cells at 400 nM after 24 hrs using annexin V/propidium iodide staining by FACS analysis; type: functional
[5] = system: T98G; test: Induction of apoptosis in human T98G cells assessed as increase of cleaved PARP level at 200 to 400 nM after 10 to 24 hrs by Western blot analysis; type: functional, cell-based
[6] = system: T98G; test: Induction of apoptosis in human T98G cells assessed as increase of cleaved caspase-8 level at 200 to 400 nM after 10 to 24 hrs by Western blot analysis; type: functional, cell-based
[7] = system: T98G; test: Induction of apoptosis in human T98G cells assessed as necrotic cells at 200 nM after 24 hrs using annexin V/propidium iodide staining by FACS analysis; type: functional
[8] = system: T98G; test: Induction of apoptosis in human T98G cells assessed as decrease in cell viability at 400 nM after 24 hrs using propidium iodide /Hoechst staining by FACS analysis in presence of NAC (reference value: 2.9%); type: functional
[9] = system: T98G; test: Induction of apoptosis in human T98G cells assessed as necrotic cells at 400 nM after 24 hrs using annexin V/propidium iodide staining by FACS analysis; type: functional
[10] = system: T98G; test: Induction of apoptosis in human T98G cells assessed as increase of ROS level at 400 nM after 8 hrs using DCFH-DA staining by FACS analysis in presence of NAC (reference value: 2.4%); type: functional
[11] = system: T98G; test: Induction of apoptosis in human T98G cells assessed as decrease in cell viability at 200 nM after 24 hrs using propidium iodide /Hoechst staining by FACS analysis in presence of NAC (reference value: 2.9%); type: functional
[12] = system: T98G; test: Induction of apoptosis in human T98G cells assessed as increase of cleaved caspase-9 level at 200 to 400 nM after 10 to 24 hrs by Western blot analysis; type: functional, cell-based
[13] = system: T98G; test: Induction of apoptosis in human T98G cells assessed as decrease in cell viability after 24 hrs using propidium iodide /Hoechst staining by FACS analysis; type: functional, cell-based
[14] = system: T98G; test: Induction of apoptosis in human T98G cells assessed as decrease of Bcl-2 level at 200 to 400 nM after 10 to 24 hrs by Western blot analysis; type: functional, cell-based
[15] = system: T98G; test: Induction of apoptosis in human T98G cells assessed as increase of Bax level at 200 to 400 nM after 10 to 24 hrs by Western blot analysis; type: functional, cell-based
[16] = system: T98G; test: Induction of apoptosis in human T98G cells assessed as decrease in cell viability at 400 nM after 24 hrs using propidium iodide /Hoechst staining by FACS analysis (reference value: 2.9%); type: functional
[17] = system: T98G; test: Induction of apoptosis in human T98G cells assessed as increase of AIF level at 200 to 400 nM after 10 to 24 hrs by Western blot analysis; type: functional, cell-based
[18] = system: T98G; test: Induction of apoptosis in human T98G cells assessed as increase of ROS level at 400 nM after 8 hrs using DCFH-DA staining by FACS analysis (reference value: 2.4%); type: functional
[19] = system: T98G; test: Induction of apoptosis in human T98G cells assessed as late-stage apoptotic cells at 200 nM after 24 hrs using annexin V/propidium iodide staining by FACS analysis; type: functional
[20] = system: T98G; test: Induction of apoptosis in human T98G cells assessed as late-stage apoptotic cells at 400 nM after 24 hrs using annexin V/propidium iodide staining by FACS analysis; type: functional
[21] = system: T98G; test: Induction of apoptosis in human T98G cells assessed as early-stage apoptotic cells at 200 nM after 24 hrs using annexin V/propidium iodide staining by FACS analysis; type: functional
[22] = system: T98G; test: Induction of apoptosis in human T98G cells assessed as increase of ROS level at 200 nM after 8 hrs using DCFH-DA staining by FACS analysis (reference value: 2.4%); type: functional
[23] = system: T98G; test: Induction of apoptosis in human T98G cells assessed as decrease in cell viability at 200 nM after 24 hrs using propidium iodide /Hoechst staining by FACS analysis (reference value: 2.9%); type: functional
[24] = system: T98G; test: Induction of apoptosis in human T98G cells assessed as increase of cleaved caspase-3 level at 200 to 400 nM after 10 to 24 hrs by Western blot analysis; type: functional, cell-based
[25] = system: T98G; test: Induction of apoptosis in human T98G cells assessed as increase of ROS level at 200 to 400 nM after 10 hrs using DCFH-DA staining by fluorescence microscopic analysis in presence of NAC; type: functional, cell-based
[26] = system: T98G; test: Induction of apoptosis in human T98G cells assessed as increase of ROS level at 200 nM after 8 hrs using DCFH-DA staining by FACS analysis in presence of NAC (reference value: 2.4%); type: functional
[27] = system: T98G; test: Induction of apoptosis in human T98G cells assessed as increase of cytochrome-c protein level at 200 to 400 nM after 10 to 24 hrs by Western blot analysis; type: functional, cell-based

COc1cc(/C=C/C(=O)CC(=O)/C=C/c2ccc(O)c(OC)c2)ccc1O [CURCUMIN]
IC50 [1]: 10 µM
IC50 [2]: 25 µM

COc1cccc2c1C(=O)c1c(O)c3c(c(O)c1C2=O)C[C@@](O)(C(=O)CO)C[C@@H]3O[C@H]1C[C@H](N)[C@H](O)[C@H](C)O1 [DOXORUBICIN]
IC50 [1]: 0.5 µM

O=C(O[C@@H]1Cc2c(O)cc(O)cc2O[C@@H]1c1cc(O)c(O)c(O)c1)c1cc(O)c(O)c(O)c1 [EPIGALOCATECHIN GALLATE]
IC50 [1]: 166 µM

CC(C)=CCC[C@]1(C)C=Cc2c(O)c3c(c(CC=C(C)C)c2O1)O[C@]12C(=C[C@@H]4C[C@H]1C(C)(C)O[C@@]2(C/C=C(/C)C(=O)O)C4=O)C3=O [GAMBOGIC ACID]
Activity [3]: Active
Activity [4]: 12.6%
Activity [5]: Active
Activity [6]: Active
Activity [7]: 4%
Activity [8]: 6%
Activity [9]: 27.6%
Activity [10]: 2.6%
Activity [11]: 5.8%
Activity [1]: Dose-dependent effect
IC50 [1]: ≤ 0.3 µM
Activity [12]: Active
Activity [13]: Dose-dependent effect
Activity [14]: Active
Activity [15]: Active
Activity [16]: 76.6%
Activity [17]: Active
Activity [18]: 36.5%
Activity [19]: 8.57%
Activity [20]: 13.7%
Activity [21]: 32.3%
Activity [22]: 38.5%
Activity [23]: 33.4%
Activity [24]: Active
Activity [25]: inactive
Activity [26]: 2.8%
Activity [27]: Active
